Measurements as given in patent US7727980B2, “Tricyclic androgen receptor modulator compounds and methods” (priority 2001, dated 2010).
Like-named read-outs stand apart in the source and are kept apart here.

What was measured:
[1] = target: T1, human AR (Homo sapiens, UniProt P10275); experiment: Co-transfection assay, AR agonist activity, CV-1 cells; format: cell-based; design: expressed in transfected cells; host or cells: CV-1 cells (African green monkey kidney fibroblasts), transient transfection with pRShAR; conditions: for AR Agonist CV-1 Cells Efficacy (%): percent maximal response relative to reference agonist DHT
T1 sequence (P10275 1-920): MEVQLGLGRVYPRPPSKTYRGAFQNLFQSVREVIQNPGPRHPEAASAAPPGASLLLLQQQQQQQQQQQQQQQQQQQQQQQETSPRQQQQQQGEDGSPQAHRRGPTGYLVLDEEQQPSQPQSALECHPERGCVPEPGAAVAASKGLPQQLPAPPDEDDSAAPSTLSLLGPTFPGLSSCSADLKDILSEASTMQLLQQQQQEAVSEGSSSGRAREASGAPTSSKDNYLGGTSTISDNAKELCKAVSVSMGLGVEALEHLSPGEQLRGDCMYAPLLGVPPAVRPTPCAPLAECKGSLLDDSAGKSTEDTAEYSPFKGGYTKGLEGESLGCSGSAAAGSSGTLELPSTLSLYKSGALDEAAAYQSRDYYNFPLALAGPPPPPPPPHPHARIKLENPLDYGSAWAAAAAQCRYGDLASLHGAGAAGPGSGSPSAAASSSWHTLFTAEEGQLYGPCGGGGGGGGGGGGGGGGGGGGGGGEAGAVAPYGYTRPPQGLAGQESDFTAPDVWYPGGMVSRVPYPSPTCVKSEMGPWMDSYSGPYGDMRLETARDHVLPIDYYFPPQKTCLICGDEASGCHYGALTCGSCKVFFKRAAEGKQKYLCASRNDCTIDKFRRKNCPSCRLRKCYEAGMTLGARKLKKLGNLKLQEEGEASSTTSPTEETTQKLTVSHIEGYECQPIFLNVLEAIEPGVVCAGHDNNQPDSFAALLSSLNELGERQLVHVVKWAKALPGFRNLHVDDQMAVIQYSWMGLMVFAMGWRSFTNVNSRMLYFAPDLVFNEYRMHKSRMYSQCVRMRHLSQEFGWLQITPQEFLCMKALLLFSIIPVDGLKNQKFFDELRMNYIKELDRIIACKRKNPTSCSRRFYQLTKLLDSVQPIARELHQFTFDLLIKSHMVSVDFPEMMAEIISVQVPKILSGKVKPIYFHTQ
Description: (§1) The co-transfection assay provides a method for identifying functional agonists and partial agonists which mimic, or antagonists which inhibit, the effect of native hormones and quantifying their activity for responsive IR proteins. In this regard, the co-transfection assay mimics an in vivo system in the laboratory. Importantly, activity in the co-transfection assay correlates very well with known in vivo activity, such that the co-transfection assay functions as a qualitative and quantitative predictor of a tested compounds in vivo pharmacology. See, e.g., T. Berger et al. 41 J. Steroid Biochem. Molec.
(§2) In the co-transfection assay, a cloned cDNA for an IR (e.g., human PR, AR or GR) under the control of a constitutive promoter (e.g., the SV 40 promoter) is introduced by transfection (a procedure to induce cells to take up foreign genes) into a background cell substantially devoid of endogenous IRs. This introduced gene directs the recipient cells to make the IR protein of interest. A second gene is also introduced (co-transfected) into the same cells in conjunction with the IR gene. This second gene, comprising the cDNA for a reporter protein, such as firefly luciferase (LUC), controlled by an appropriate hormone responsive promoter containing a hormone response element (HRE). This reporter plasmid functions as a reporter for the transcription-modulating activity of the target IR. Thus, the reporter acts as a surrogate for the products (mRNA then protein) normally expressed by a gene under control of the target receptor and its native hormone.
(§3) The co-transfection assay can detect small molecule agonists or antagonists of target IRs. Exposing the transfected cells to an agonist ligand compound increases reporter activity in the transfected cells. This activity can be conveniently measured, e.g., by increasing luciferase production, which reflects compound-dependent, IR-mediated increases in reporter transcription. […] To detect antagonists, the co-transfection assay is carried out in the presence of a constant concentration of an agonist to the target IR (e.g., progesterone for PR) known to induce a defined reporter signal. Increasing concentrations of a suspected antagonist will decrease the reporter signal (e.g., luciferase production). The co-transfection assay is therefore useful to detect both agonists and antagonists of specific IRs. Furthermore, it determines not only whether a compound interacts with a particular IR, but whether this interaction mimics (agonizes) or blocks (antagonizes) the effects of the native regulatory molecules on target gene expression, as well as the specificity and strength of this interaction.
(§4) CV-1 cells (African green monkey kidney fibroblasts) were cultured in the presence of Dulbecco's Modified Eagle Medium (DMEM) supplemented with 10% charcoal resin-stripped fetal bovine serum then transferred to 96-well microtiter plates one day prior to transfection.
(§5) The reporter plasmid, MTV-LUC, contains the cDNA for firefly luciferase (LUC) under control of the mouse mammary tumor virus (MTV) long terminal repeat, a conditional promoter containing an androgen response element. See e.g., Berger et al. supra. In addition, pRS-β-Gal, coding for constitutive expression of E. coli β-galactosidase (β-Gal), was included as an internal control for evaluation of transfection efficiency and compound toxicity.
(§6) Six hours after transfection, media was removed and the cells were washed with phosphate-buffered saline (PBS). […] Three to four replicates were used for each sample. Transfections and subsequent procedures were performed on a Biomek 1000 automated laboratory work station.
(§7) After 40 hours, the cells were washed with PBS, lysed with a Triton X-100-based buffer and assayed for LUC and β-Gal activities using a luminometer or spectrophotometer, respectively. For each replicate, the normalized response (NR) was calculated as: LUC response/β-Gal rate • where β-Gal rate=β-Gal·1×10^−5/β-Gal incubation time.

[2] = target: T1, human AR; experiment: Co-transfection assay, AR antagonist activity in presence of DHT, CV-1 cells; format: cell-based; design: expressed in transfected cells; host or cells: CV-1 cells (African green monkey kidney fibroblasts), transient transfection with pRShAR; conditions: for AR Antagonist CV-1 Cells Efficacy (%): percent maximal inhibition, DHT at its EC50 concentration
Description: as §1, §2, §3, §4, §5, §6, §7

[3] = agonist potency or EC50, read-out: AR Agonist CV-1 Cells Potency
[4] = CV-1 cells, antagonist potency or IC50, DHT at its EC50 concentration, read-out: AR Antagonist CV-1 Cells Potency
[5] = AR Agonist CV-1 Cells Potency (nM), agonist potency or EC50
[6] = AR Antagonist CV-1 Cells Potency (nM), CV-1 cells, antagonist potency or IC50, DHT at its EC50 concentration

Row | Compound | EC50 [1, 3] | AR Agonist CV-1 Cells Efficacy (%) [1] | IC50 [2, 4] | AR Antagonist CV-1 Cells Efficacy (%) ([2]; CV-1 cells) | EC50 [1, 5] | IC50 [2, 6] | IC50 [2]
1 | 6,7-Dihydro-8,8,10-trimethyl-4-(trifluoromethyl)-8H-pyrano[3,2-g]quinolin-2(1H)-one [Compound 206] | > 10000 nM | na (na = not active (i.e. efficacy of <20 and potency of >10,000)) | 175 nM | 90% |  |  | 
2 | 6,7-Dihydro-8,8-dimethyl-4-(trifluoromethyl)-8H-pyrano[3,2-g]quinolin-2(1H)-one [Compound 202] | > 10000 nM | na (na = not active (i.e. efficacy of <20 and potency of >10,000)) | 146 nM | 92% |  |  | 
3 | 6-Ethyl-5-methyl-7-(2,2,2-trifluoroethyl)-4-trifluoromethyl-7H-pyrrolo[3,2-f]quinolin-2(1H)-one [Compound 153] | 7.6 nM | 76% | > 10000 nM | na (na = not active (i.e. efficacy of <20 and potency of >10,000)) |  |  | 
4 | CC(C)C1c2c(ccc3[nH]c(=O)cc(C(F)(F)F)c23)N(CC(F)(F)F)C1C (racemic) [Compound 144, (±)-5,6-cis-Dihydro-5-isopropyl-6-methyl-7-(2,2,2-trifluoroethyl)-4-trifluoromethyl-7H-pyrrolo[3,2-f]quinolin-2(1H)-one] |  | na (na = not active (i.e. efficacy of <20 and potency of >10,000)) |  | 53% | > 10000 nM | 23 nM | 
5 | CCC1CCOc2cc3c(cc21)c(C(F)(F)F)cc(=O)n3C (racemic) [Compound 220, (±)-6,7-Dihydro-6-ethyl-4-trifluoromethyl-1-methyl-8H-pyrano[3,2-g]quinolin-2(1H)-one] |  | na (na = not active (i.e. efficacy of <20 and potency of >10,000)) |  | 67% | > 10000 nM | 23 nM | 
6 | CCc1c(C)c2cc3[nH]c(=O)cc(C(F)(F)F)c3cc2n1CC(F)(F)F [Compound 163, 7-Ethyl-8-methyl-6-(2,2,2-trifluoroethyl)-4-trifluoromethyl-6H-pyrrolo[2,3-g]quinolin-2(1H)-one] |  | na (na = not active (i.e. efficacy of <20 and potency of >10,000)) |  | 37% | > 10000 nM | 8.2 nM | 
7 | CC1CC(C)(C)N(CC(F)(F)F)c2ccc3[nH]c(=O)ccc3c21 (stereo not shown) [Compound 182, 8-(2,2,2-Trifluoroethyl)-5,6,7,8-tetrahydro-5,7,7-trimethylpyrido[3,2-f]quinolin-2(1H)-one] |  | na (na = not active (i.e. efficacy of <20 and potency of >10,000)) |  | 81% |  |  | 13 nM
8 | (−)-6,7-Dihydro-6-ethyl-4-trifluoromethyl-8H-pyrano[3,2-g]quinolin-2(1H)-one [Compound 217] | > 10000 nM | na (na = not active (i.e. efficacy of <20 and potency of >10,000)) | 64 nM | 85% |  |  | 
